Patent publication US20090054517A1, “Phytoestrogens As Regulators Of Hedgehog Signaling And Methods Of Their Use In Cancer Treatment” (priority 2007, published 2009)
Read-outs that look alike come from different tables or passages of the source.

How the values were obtained:
Gli1 = Gli1 mRNA expression by RT-PCR / real-time RT-PCR in TRAMP-C2 cells; assay type: cell-based, mouse; conditions: for suppression of Gli1 mRNA concentration compared with cyclopamine 30 μM: TRAMP-C2, time course 72 hrs, genistein 50 μM, EGCG 100 μM, FIG. 7A
Protocol: (§1) It has been shown that phytoestrogens in common herbs regulate prostate cancer cell growth in vitro (Shenouda et al., 2004). In order to determine whether these phytoestrogens also regulate cells derived from the mouse model of prostate cancer, the TRAMP-C2 cell line was treated with the soy phytoestrogen genistein and growth inhibition IC50 doses were determined (FIG. 4). Effects of the phytoestrogens genistein and EGCG on expression of these Hedgehog-pathway components were also determined by quantitative RT-PCR. Cyclopamine was used as a control. […] GAPDH was used as an internal control.
Another experiment was carried out to determine the dosage response of these phytoestrogen on Gli1 expression in the TRAMP-C2 cell line. Increasing amounts of genistein or EGCG were added to cell cultures of TRAMP-C2, and the levels of Gli1 mRNA was determined by real time RT-PCR. The results of this experiment verifies a correlation between phytoestrogen treatment and Hedgehog activity (FIG. 6).
In order to test whether the inhibitory effect of genistein on Gli1 transcription is through ERα or ERβ, experiments were conducted to determine whether 17β-estradiol (E2) works in the same manner as genistein (FIG. 7C).

[1] = test system: Hedgehog pathway activity in Shh Light II cells; experiment: Shh Light II Gli1-responsive luciferase reporter assay; assay type: cell-based; conditions: Shh Light II cells with sonic hedgehog protein, 24 hours, FIG. 7B
Protocol: The effects of various phytoestrogens on Hedgehog signaling in a non-tumor cell line Shh Light II were also assessed (FIG. 7B). Shh Light II cells were obtained from the ATCC. These cells, containing the Gli1 responsive promoter driving a luciferase reporter, are a standard tool used to assay Hedgehog pathway activity. Meloni et al., 2006. Cells were allowed to reach confluency in 24-well plates and subsequently treated with the selected phytoestrogens at the amount indicated on the figure, along with the stimulatory sonic hedgehog protein (obtained from R&D Systems). The cells were then grown for 24 hours in phenol red-free DMEM supplemented with 0.5% charcoal stripped fetal bovine serum. Cells were then lysed, and the luciferase and renilla activities of the cell lysates were measured.

Patched1 = Patched1 mRNA levels by RT-PCR; assay type: cell-based, mouse
Protocol: as §1
(§2) Approximate IC50 values for pathway repression were determined as 30 μM for genistein, 20 μM for EGCG, and 5 μM for resveratrol. These concentrations may be easily obtainable pharmacologically in humans. […] Thus, Genistein, EGCG, and resveratrol may regulate prostate cancer via inhibition of the Hedgehog signaling pathway.

[2] = test system: Gli1 protein in LNCaP cells; experiment: Gli1 protein concentration in LNCaP cells by Western blot; assay type: cell-based, human
Protocol: as §2

[3] = test system: Hedgehog signaling pathway; experiment: Hedgehog pathway repression, approximate IC50 from RT-PCR; assay type: cell-based, mouse; conditions: read-out: Approximate IC50 for pathway repression
Protocol: Another experiment was carried out to determine the dosage response of these phytoestrogen on Gli1 expression in the TRAMP-C2 cell line. […] The results of this experiment verifies a correlation between phytoestrogen treatment and Hedgehog activity (FIG. 6). […] These concentrations may be easily obtainable pharmacologically in humans.

TRAMP-C2 cells = experiment: Growth of TRAMP-C2 cell line (total cellular protein); assay type: cell-based, mouse
Protocol: as §1

[4] = in vivo; cited from earlier work
xenograft tumors = conditions: mice; cited from earlier work
[5] = test system: prostate tumor in ERαKO/TRAMP mice; experiment: Prostate tumorigenesis in ERαKO/TRAMP mice fed genistein diet; assay type: in vivo, mouse
Protocol: (§3) The influence of estrogen on prostate cancer has been previously described in the Background section. In order to determine the effect of genistein on prostate tumor development in the TRAMP model, in the first experiment, groups of ˜30 male mice, either ERαKO/TRAMP, ERβKO/TRAMP or ERWT/TRAMP were fed diets containing 0 or 300 mg genistein/kg (See Table 1). Mice were fed the diets from weaning and were euthanized at 5 months of age. Prostates were dissected and prepared for histopathology. The tumor stage was assessed using ratings of normal (N), hyperplasia (HYP), prostatic intraepithelial neoplasia (PIN), well differentiated carcinoma (WDC), moderately differentiated carcinoma (MDC) or poorly differentiated carcinoma (PDC) See Wechter et al., 2000; also see http://thegreenberglab.fhcrc.org. To summarize the data, non-cancer was defined as N, HYP or PIN and cancer was defined as WDC, MDC or PDC (Table 1) The prostate tumor incidence was compared between mice fed with genistein diet and those fed with casein.

[6] = test system: prostate tumor in ERWT/TRAMP mice; experiment: Prostate tumorigenesis in ERWT/TRAMP mice fed genistein diet; assay type: in vivo, mouse
Protocol: as §3

[7] = test system: estrogen receptor alpha (ERα) and beta (ERβ); conditions: cited from earlier work
[8] = test system: prostate tumor in ERβKO/TRAMP mice; experiment: Prostate tumorigenesis in ERβKO/TRAMP mice fed genistein diet; assay type: in vivo, mouse
Protocol: as §3

[9] = test system: poorly differentiated carcinoma in TRAMP mouse; conditions: TRAMP mouse model; cited from earlier work
[10] = ERαKO/TRAMP, 300 mg genistein/kg diet, 5 months of age
[11] = ERWT/TRAMP, 300 mg genistein/kg diet, 5 months of age
[12] = ERβKO/TRAMP, 300 mg genistein/kg diet, 5 months of age

SMILES: C[C@]12CC[C@@H]3c4ccc(O)cc4CC[C@H]3[C@@H]1CC[C@@H]2O [E2, 17β-estradiol, reference compound]
- inhibition of Gli1 expression (Gli1; TRAMP-C2 cells, 10 nM, 24 hours, FIG. 7C): Strong inhibition

SMILES: COc1cc(/C=C/C(=O)CC(=O)/C=C/c2ccc(O)c(OC)c2)ccc1O [curcumin]
- hedgehog activity (luciferase reporter activity) [1]: inhibit

SMILES: Oc1ccc(C=Cc2cc(O)cc(O)c2)cc1 [resveratrol]
- reduction of Gli1 mRNA (Gli1; RT-PCR): 60%
- reduction of Patched1 mRNA levels (Patched1): 50%
- Gli1 protein concentration [2]: significantly reduced
- IC50 ([3]; Mus musculus, RT-PCR): ~5 µM

SMILES: O=C(O[C@@H]1Cc2c(O)cc(O)cc2O[C@@H]1c1cc(O)c(O)c(O)c1)c1cc(O)c(O)c(O)c1 [EGCG]
- suppression of Gli1 mRNA concentration compared with cyclopamine 30 μM (Gli1): more pronounced
- expression of Gli1, Gli2 and Gli3 (Gli1; TRAMP-C2 cells): down-regulate
- reduction of Patched1 mRNA levels (Patched1): 70%
- proliferation of TRAMP-C2 cells (TRAMP-C2 cells): inhibited
- Gli1 protein concentration [2]: significantly reduced
- IC50 ([3]; RT-PCR): ~20 µM

SMILES: CC1=C2C[C@H]3[C@@H](CC=C4C[C@@H](O)CC[C@@]43C)[C@@H]2CC[C@]12O[C@@H]1C[C@H](C)CN[C@H]1[C@H]2C [cyclopamine]
- birth defects in the progeny [4]: cause birth defects, most notably cyclopia
- effect on xenograft tumors (xenograft tumors): complete regression

SMILES: O=c1c(-c2ccc(O)cc2)coc2cc(O)cc(O)c12 [genistein]
- suppression of Gli1 mRNA concentration compared with cyclopamine 30 μM (Gli1): more pronounced
- expression of Gli1, Gli2 and Gli3 (Gli1; TRAMP-C2 cells): down-regulate
- Gli1 expression compared to the untreated control (Gli1; TRAMP-C2 cells, RT-PCR, FIG. 5, GAPDH internal control): down-regulates
- effect of addition of genistein on inhibition of Gli1 expression by E2 (Gli1; TRAMP-C2 cells, with 10 nM E2, FIG. 7C): did not enhance
- reduction of Patched1 mRNA levels (Patched1): 70%
- proliferation of TRAMP-C2 cells (TRAMP-C2 cells): inhibited
- Gli1 protein concentration [2]: significantly reduced
- protective effect on prostate tumor incidence versus casein diet ([5]; ERαKO/TRAMP mice, 300 mg genistein/kg diet from weaning to 5 months): not
- HYP (2), number of mice [5, 10]: 0
- MDC (5), incidence [5, 10]: 3.8%
- MDC (5), number of mice [5, 10]: 1
- Normal (Stage1), incidence [5, 10]: 3.8%
- Normal (Stage1), number of mice [5, 10]: 1
- PDC (6), number of mice [5, 10]: 0
- PIN (3), incidence [5, 10]: 3.8%
- PIN (3), number of mice [5, 10]: 1
- WDC (4), incidence [5, 10]: 88.6%
- WDC (4), number of mice [5, 10]: 23
- protective effect on prostate tumor incidence versus casein diet ([6]; ERWT/TRAMP mice, 300 mg genistein/kg diet from weaning to 5 months): significant protective effect
- HYP (2), incidence [6, 11]: 28%
- HYP (2), number of mice [6, 11]: 15
- MDC (5), incidence [6, 11]: 2%
- MDC (5), number of mice [6, 11]: 1
- Normal (Stage1), number of mice [6, 11]: 0
- PDC (6), incidence [6, 11]: 24%
- PDC (6), number of mice [6, 11]: 13
- PIN (3), incidence [6, 11]: 33%
- PIN (3), number of mice [6, 11]: 18
- WDC (4), incidence [6, 11]: 13%
- WDC (4), number of mice [6, 11]: 7
- binding to ERα and ERβ [7]: bind both receptors with a higher affinity for ERβ
- hedgehog activity (luciferase reporter activity) [1]: inhibit
- protective effect on prostate tumor incidence versus casein diet ([8]; ERβKO/TRAMP mice, 300 mg genistein/kg diet from weaning to 5 months): not
- HYP (2), number of mice [8, 12]: 0
- MDC (5), number of mice [8, 12]: 0
- Normal (Stage1), number of mice [8, 12]: 0
- PDC (6), incidence [8, 12]: 48%
- PDC (6), number of mice [8, 12]: 10
- PIN (3), incidence [8, 12]: 19%
- PIN (3), number of mice [8, 12]: 4
- WDC (4), incidence [8, 12]: 33%
- WDC (4), number of mice [8, 12]: 7
- effect on poorly differentiated carcinoma [9]: protective effect
- IC50 ([3]; Mus musculus): ~30 µM
